Structures can show the parent of a compound that is named as a salt.
Columns and labels:
CDK4/CyclinD3 = target: T1, CDK4/CyclinD3 (Homo sapiens, UniProt P11802); experiment: In-vitro kinase inhibitory activity, CDK4/CyclinD3 (Caliper EZ Reader II mobility shift); type: biochemical; details: CDK4/CyclinD3 20 nM, ATP 2 mM, Peptide 1 μM, 27° C., 180 min; read-out: IC50 (half maximal inhibitory concentration, nM) CDK4
T1 construct: purchased Wuxi Biortus Biosciences Co. Ltd
Experimental: The final volume for assay was 16 μL, and the reaction temperature was 27° C. CDK4/CyclinD3 was produced by Wuxi Biortus Biosciences Co. Ltd. The concentration of the kinase was determined by the results of the optimization experiment. The kinase was diluted with an assay buffer (50 mM Tris HCl pH 8.0, 0.01% Tween 20, 50 μg/mL BSA, and 5 mM MgCl2) to obtain a corresponding kinase solution (2.4× concentration). The compound was dissolved in dimethyl sulfoxide (DMSO) to reach a concentration of 10 mM. […] 2 μL of the test compound solution was mixed with 5 μL of the kinase solution, and the mixture was incubated for 10 min. 5 μL of the mixed solution of the polypeptide substrate and ATP was then added. The mixture was incubated at 27° C. for 180 min, and then the reaction was terminated by adding 4 μL of EDTA with a concentration of 120 mM to each sample. […] Each assay was conducted in at least two replicates.
(§1) The final concentrations of the reagents in the assay were as follows. […] The reaction mixture was analyzed on a Caliper EZ Reader II by electrophoretic separation of the fluorescent substrate and the phosphorylated product. Data were calculated by using GraphPad Prism version 6.0 and IC50 values were obtained by adjusting the non-linear regression models of the dose response curves.

CDK6/CyclinD3 = target: T2, CDK6/CyclinD3 (Homo sapiens, UniProt Q00534); experiment: In-vitro kinase inhibitory activity, CDK6/CyclinD3 (Caliper EZ Reader II mobility shift); type: biochemical; details: CDK6/CyclinD3 20 nM, ATP 2 mM, Peptide 1 μM, 27° C., 120 min; read-out: IC50 (half maximal inhibitory concentration, nM) CDK6
T2 construct: purchased Wuxi Biortus Biosciences Co. Ltd
Experimental: The final volume for assay was 16 μL, and the reaction temperature was 27° C. […] The compound was dissolved in dimethyl sulfoxide (DMSO) to reach a concentration of 10 mM. […] 2 μL of the test compound solution was mixed with 5 μL of the kinase solution, and the mixture was incubated for 10 min. 5 μL of the mixed solution of the polypeptide substrate and ATP was then added. The mixture was incubated at 27° C. for 120 min, and then the reaction was terminated by adding 4 μL of EDTA with a concentration of 120 mM to each sample. […] Each assay was conducted in at least two replicates.
as §1

CDK2 = CDK2 (Homo sapiens, UniProt P24941); experiment: In-vitro kinase inhibitory activity, CDK2 (selectivity); type: biochemical; details: read-out: IC50 (half maximal inhibitory concentration, nM) CDK2
CDK9 = CDK9 (Homo sapiens, UniProt P50750); experiment: In-vitro kinase inhibitory activity, CDK9 (selectivity); type: biochemical; details: read-out: IC50 (half maximal inhibitory concentration, nM) CDK9
CRBN = target: T3, CRBN (Homo sapiens, UniProt Q96SW2); experiment: In-vitro inhibition assay of CRBN activity (fluorescence polarization, Cy5-Thalidomide); type: binding; details: Cy5-Thalidomide 10 nM, CRBN 180 nM, 27° C., 60 min
T3 construct: purchased Wuxi Biortus Biosciences Co. Ltd
Experimental: The final volume for assay was 20 μL, and the reaction temperature was 27° C. CRBN was produced by Wuxi Biortus Biosciences Co. Ltd. The concentration of the kinase was determined by the optimization experiment, and the kinase was diluted with an assay buffer (50 mM Tris, pH 7.5, 100 mM NaCl, and 0.01% Pluronic acid) to obtain a corresponding kinase solution (2× concentration). The compound was dissolved in dimethyl sulfoxide (DMSO) to reach a concentration of 10 mM. […] 5 μL of the test compound solution was mixed with 5 μL of the substrate solution, and 10 μL of the kinase solution was added to the mixture. The mixture was incubated at 27° C. for 60 min. Each assay was conducted in at least two replicates. […].
The final concentrations of the reagents in the assay were as follows. […] The data of fluorescence polarization assay were read on TECAN infinite M1000. Data were calculated by using GraphPad Prism version 6.0, and IC50 values were obtained by adjusting the non-linear regression models of the dose response curves.

[1] = system: human colon cancer COLO205 cells; experiment: Growth inhibition of tumor cells cultured in vitro, CellTiter-Glo, COLO205; type: cell-based; details: for IC50: Homo sapiens, COLO 205, 72 h, COLO205, 72 h, CellTiter-Glo
Source text: (§2) Test drugs: Compounds of the present disclosure. Tumor cell strains: human colon cancer COLO205 cells and human breast cancer MCF-7 cells.
(§3) The growth inhibitory effects on human tumor cells COLO205 and MCF-7 cultured in vitro were observed by using a CellTiter-Glo Luminescent Cell Viability Assay Kit (Promega, Cat. No. G7572). Human tumor cells COLO205 and MCF-7 were both purchased from the American Type Culture Collection.
(§4) CellTiter-Glo Luminescent Cell Viability Assay: The previous cell culture medium was discarded, and the tumor cells were rinsed twice with PBS. An appropriate amount of trypsin (VWR, Cat. No. 0458-25G) was added to digest the tumor cells until most of the cells turned round and were detached from the wall. The trypsin digestion was terminated by adding an RPMI-1640 medium (COLO205; Gibco, Cat. No. A10491-01) containing 10% fetal bovine serum (Hyclone, Cat. No. SV30160.03) and MEM medium (MCF-7; Gibco, Cat. No. 10370-021) containing 10% fetal bovine serum and 0.01 mg/mL insulin, and the cells were gently pipetted with a pipette to completely suspend the tumor cells. After cell counting, a tumor cell suspension was prepared using a complete culture medium and the final concentration was 6.7×10^4 cells/mL. 90 μL of the tumor cell suspension was seeded in each well of a 96-well culture plate (6000 cells/well). The plate was then placed in an incubator with 5% CO2 at 37° C. and incubated for 24 h. A test drug was added by using an Agilent Bravo Automated Liquid Handling Platform, and 10 μL of the sample was added in each well. The assay was conducted in triplicate for each group. A compound of the present disclosure was dissolved in DMSO (BioRoYee, Cat. No. AF0231), and then the resulting solution was diluted to 10 μM/L, 3.33 μM/L, 1.11 μM/L, 0.37 μM/L, 0.123 μM/L, 0.041 μM/L, 0.0137 μM/L, 0.0046 μM/L, and 0.0015 μM/L with the culture medium. The concentration of DMSO was lower than 0.1%, and a culture medium containing 0.1% DMSO was added to the well which was set as a vehicle control group. The 96-well plate was placed in an incubator with 5% CO2 at 37° C. and incubated for 72 h. The 96-well plate to be tested was equilibrated at room temperature for 30 min, and 100 μL of Cell Titer-Glo reagent was added to each well. The contents of each well were mixed in an orbital shaker for 2 min to induce cell lysis, and the plate was incubated at room temperature for 10 min to achieve a constant value of fluorescent intensity. Finally, the chemiluminescence intensity was detected by TECAN M1000. Data were processed with Graphpad Prism 6.0 software. The growth curve of the cells was plotted. The cell growth inhibition rate of a drug was calculated, and the half maximal inhibitory concentration (IC50) of the drug was determined.

[2] = system: human breast cancer MCF-7 cells; experiment: Growth inhibition of tumor cells cultured in vitro, CellTiter-Glo, MCF-7; type: cell-based; details: MCF-7, 72 h, CellTiter-Glo
Source text: as §2, §3, §4

T1 sequence (P11802 whole entry, species assumed): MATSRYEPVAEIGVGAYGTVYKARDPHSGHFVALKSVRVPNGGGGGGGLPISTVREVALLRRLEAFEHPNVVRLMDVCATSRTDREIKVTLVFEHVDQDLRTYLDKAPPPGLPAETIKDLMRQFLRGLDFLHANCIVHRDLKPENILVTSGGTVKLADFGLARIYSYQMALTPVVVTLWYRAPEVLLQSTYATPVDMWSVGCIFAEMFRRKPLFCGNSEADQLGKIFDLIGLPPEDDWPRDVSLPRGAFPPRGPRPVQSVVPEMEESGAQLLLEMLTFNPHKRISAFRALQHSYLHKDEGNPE
T1 sequence (P30281 whole entry partner, species assumed): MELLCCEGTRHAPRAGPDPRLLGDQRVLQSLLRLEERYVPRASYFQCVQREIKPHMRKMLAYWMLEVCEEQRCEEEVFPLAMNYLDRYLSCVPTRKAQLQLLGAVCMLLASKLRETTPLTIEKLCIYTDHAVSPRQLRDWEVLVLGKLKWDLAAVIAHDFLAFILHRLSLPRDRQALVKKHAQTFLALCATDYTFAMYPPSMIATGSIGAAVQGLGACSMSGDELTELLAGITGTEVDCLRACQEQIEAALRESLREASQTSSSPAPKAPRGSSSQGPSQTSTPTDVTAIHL
T2 sequence (Q00534 whole entry, species assumed): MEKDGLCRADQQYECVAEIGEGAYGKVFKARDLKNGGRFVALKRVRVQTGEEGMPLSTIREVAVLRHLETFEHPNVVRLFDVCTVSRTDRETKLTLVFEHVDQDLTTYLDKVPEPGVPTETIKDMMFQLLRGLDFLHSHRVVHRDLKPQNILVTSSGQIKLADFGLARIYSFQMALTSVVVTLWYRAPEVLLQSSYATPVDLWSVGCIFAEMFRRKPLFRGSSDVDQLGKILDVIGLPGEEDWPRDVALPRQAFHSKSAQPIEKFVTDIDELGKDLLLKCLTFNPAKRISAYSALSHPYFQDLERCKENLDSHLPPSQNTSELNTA
T2 sequence (P30281 whole entry partner, species assumed): as the sequence (P30281 whole entry partner, species assumed) above
T3 sequence (Q96SW2 whole entry, species assumed): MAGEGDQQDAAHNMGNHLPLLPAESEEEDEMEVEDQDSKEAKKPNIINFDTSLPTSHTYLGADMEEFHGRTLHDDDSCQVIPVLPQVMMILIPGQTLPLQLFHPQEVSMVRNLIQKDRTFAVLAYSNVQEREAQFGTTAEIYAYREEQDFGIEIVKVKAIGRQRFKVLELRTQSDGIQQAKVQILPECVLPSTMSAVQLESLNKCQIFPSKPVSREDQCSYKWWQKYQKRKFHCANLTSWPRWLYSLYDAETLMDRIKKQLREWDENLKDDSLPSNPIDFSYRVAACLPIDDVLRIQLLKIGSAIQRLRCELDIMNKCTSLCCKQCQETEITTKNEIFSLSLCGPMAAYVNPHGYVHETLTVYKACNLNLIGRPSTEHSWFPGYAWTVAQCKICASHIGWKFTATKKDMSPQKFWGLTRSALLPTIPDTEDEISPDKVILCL
Chain of CDK9 (P50750 whole entry, species assumed): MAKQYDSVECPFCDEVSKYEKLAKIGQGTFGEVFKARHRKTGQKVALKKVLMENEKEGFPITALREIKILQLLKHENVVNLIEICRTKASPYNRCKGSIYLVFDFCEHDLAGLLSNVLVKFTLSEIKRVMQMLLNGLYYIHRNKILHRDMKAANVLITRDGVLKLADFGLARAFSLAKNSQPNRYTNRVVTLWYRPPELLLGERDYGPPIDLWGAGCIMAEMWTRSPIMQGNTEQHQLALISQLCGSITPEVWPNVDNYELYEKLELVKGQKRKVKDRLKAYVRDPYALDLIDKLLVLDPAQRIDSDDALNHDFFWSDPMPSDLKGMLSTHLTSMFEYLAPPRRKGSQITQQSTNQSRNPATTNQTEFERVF
Chain of CDK9 (O60563 whole entry partner, species assumed): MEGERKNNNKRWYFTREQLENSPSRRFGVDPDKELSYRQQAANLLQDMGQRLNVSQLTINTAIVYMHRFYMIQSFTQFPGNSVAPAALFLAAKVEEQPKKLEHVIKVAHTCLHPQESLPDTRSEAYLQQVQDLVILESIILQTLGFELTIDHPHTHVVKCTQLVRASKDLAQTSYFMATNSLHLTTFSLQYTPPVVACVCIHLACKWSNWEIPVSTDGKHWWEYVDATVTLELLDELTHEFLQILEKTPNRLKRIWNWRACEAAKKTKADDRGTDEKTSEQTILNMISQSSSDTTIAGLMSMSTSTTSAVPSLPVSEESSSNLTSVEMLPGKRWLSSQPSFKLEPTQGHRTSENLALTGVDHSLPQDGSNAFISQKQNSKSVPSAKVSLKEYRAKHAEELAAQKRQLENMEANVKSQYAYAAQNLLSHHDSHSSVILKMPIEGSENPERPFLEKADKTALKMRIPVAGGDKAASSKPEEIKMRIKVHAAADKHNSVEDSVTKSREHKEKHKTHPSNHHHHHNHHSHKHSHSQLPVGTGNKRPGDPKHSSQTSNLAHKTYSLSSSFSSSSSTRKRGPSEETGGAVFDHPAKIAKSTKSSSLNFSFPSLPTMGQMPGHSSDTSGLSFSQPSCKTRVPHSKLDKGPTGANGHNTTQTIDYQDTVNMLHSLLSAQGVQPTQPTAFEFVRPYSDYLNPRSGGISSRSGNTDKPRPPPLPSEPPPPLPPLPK

IC50 (CDK4/CyclinD3) [nM]	IC50 (CDK6/CyclinD3) [nM]	IC50 (CDK2) [nM]	IC50 (CDK9) [nM]	IC50 (CRBN) [nM]	IC50 [1] [nM]	IC50 ([2]; Homo sapiens, MCF7, 72 h) [nM]	IC50 [2] [nM]	Compound	inhibitory effect on human colon cancer COLO205 cells (in words) ([1]; summary of the table)
54.7	30	7480	9920	1420	–	–	–	CC(=O)c1c(C)c2cnc(Nc3ccc(N4CCN(CC(=O)N5CCC(C(=O)N6CCN(c7ccc8c(c7)CN([C@H]7CCC(=O)NC7=O)C8=O)CC6)CC5)CC4)cn3)nc2n(C2CCCC2)c1=O [Compound 7, (S)-3-(5-(4-(1-(2-(4-(6-((6-acetyl-8-cyclopentyl-5-methyl-7-oxo-7,8-dihydropyrido[2,3-d]pyrimidin-2-yl)amino)pyridin-3-yl)piperazin-1-yl)acetyl)piperidin-4-carbonyl)piperazin-1-yl)-1-oxoisoindolin-2-yl)piperidine-2,6-dione]	–
44.6	19.6	> 10000	3760	–	78.3	> 10000	–	CC(=O)c1c(C)c2cnc(Nc3ccc(N4CCN(CCN5CCN(c6ccc7c(c6Cl)CN(C6CCC(=O)NC6=O)C7=O)CC5)CC4)cn3)nc2n(C2CCCC2)c1=O (centres unmarked) [Compound 20, 3-(5-(4-(2-(4-(6-((6-acetyl-8-cyclopentyl-5-methyl-7-oxo-7,8-dihydropyrido[2,3-d]pyrimidin-2-yl)amino)pyridin-3-yl)piperazin-1-yl)ethyl)piperazin-1-yl)-4-chloro-1-oxoisoindolin-2-yl)piperidine-2,6-dione]	–
38.8	21.3	> 10000	4180	3000	45.7	> 10000	–	CC(=O)c1c(C)c2cnc(Nc3ccc(N4CCN(CCN5CCN(c6ccc7c(c6)CN(C6CCC(=O)NC6=O)C7=O)CC5)CC4)cn3)nc2n(C2CCCC2)c1=O (single isomer, unassigned) [Compound 1, 3-(5-(4-(2-(4-(6-((6-acetyl-8-cyclopentyl-5-methyl-7-oxo-7,8-dihydropyrido[2,3-d]pyrimidin-2-yl)amino)pyridin-3-yl)piperazin-1-yl)ethyl)piperazin-1-yl)-1-oxoisoindolin-2-yl)piperidine-2,6-dione]	relatively good inhibitory effects
16.1	14.5	9660	2850	1200	–	–	–	CC(=O)c1c(C)c2cnc(Nc3ccc(N4CCN(CCN5CCC(CN6CCN(c7ccc8c(c7)CN(C7CCC(=O)NC7=O)C8=O)CC6)CC5)CC4)cn3)nc2n(C2CCCC2)c1=O (single isomer, unassigned) [Compound 3, 3-(5-(4-((1-(2-(4-(6-((6-acetyl-8-cyclopentyl-5-methyl-7-oxo-7,8-dihydropyrido[2,3-d]pyrimidin-2-yl)amino)pyridin-3-yl)piperazin-1-yl)ethyl)piperidin-4-yl)methyl)piperazin-1-yl)-1-oxoisoindolin-2-yl)piperidine-2,6-dione]	–
24.2	42.4	1140	946	2510	–	–	–	Cc1nc2c(F)cc(-c3nc(Nc4ccc(CN5CCN(CC(=O)N6CCC(C(=O)N7CCN(c8ccc9c(c8)CN([C@H]8CCC(=O)NC8=O)C9=O)CC7)CC6)CC5)cn4)ncc3F)cc2n1C(C)C [Compound 6, (S)-3-(5-(4-(1-(2-(4-((6-((5-fluoro-4-(4-fluoro-1-isopropyl-2-methyl-1H-benzo[d]imidazol-6-yl)pyrimidin-2-yl)amino)pyridin-3-yl)methyl)piperazin-1-yl)acetyl)piperidin-4-carbonyl)piperazin-1-yl)-1-oxoisoindolin-2-yl)piperidine-2,6-dione]	–
24.6	21.1	8200	4440	–	127	> 10000	–	CC(=O)c1c(C)c2cnc(Nc3ccc(N4CCN(CCN5CCC(CC6CCN(c7ccc8c(c7)CN(C7CCC(=O)NC7=O)C8=O)CC6)CC5)CC4)cn3)nc2n(C2CCCC2)c1=O (centres unmarked) [Compound 11, 3-(5-(4-((1-(2-(4-(6-((6-acetyl-8-cyclopentyl-5-methyl-7-oxo-7,8-dihydropyrido[2,3-d]pyrimidin-2-yl)amino)pyridin-3-yl)piperazin-1-yl)ethyl)piperidin-4-yl)methyl)piperidin-1-yl)-1-oxoisoindolin-2-yl)piperidine-2,6-dione dihydrochloride]	–
27.4	18.2	> 10000	6220	–	87.1	–	> 10000	CC(=O)c1c(C)c2cnc(Nc3ccc(N4CCN(CCN5CCN(c6c(F)cc7c(c6F)CN(C6CCC(=O)NC6=O)C7=O)CC5)CC4)cn3)nc2n(C2CCCC2)c1=O (centres unmarked) [Compound 22, 3-(5-(4-(2-(4-(6-((6-acetyl-8-cyclopentyl-5-methyl-7-oxo-7,8-dihydropyrido[2,3-d]pyrimidin-2-yl)amino)pyridin-3-yl)piperazin-1-yl)ethyl)piperazin-1-yl)-4,6-difluoro-1-oxoisoindolin-2-yl) piperidine-2,6-dione]	–

Source: patent publication US11485735B2, “Selective CDK4/6 inhibitor and preparation thereof” (Wuxi Shuangliang Biotechnology Co., Ltd., priority 2019, dated 2022)
